Data set [1] concerns Methicillin-resistant Staphylococcus aureus MRSA (ATCC BAA-1556). The note with it: ATCC BAA-1556.
Another data set has as its system S. aureus ATCC 29213. The note with it: ATCC 29213.
For data set [2], the system named is Pseudomonas aeruginosa (ATCC 27883).
Data set [3] relates to Escherichia coli (ATCC 25922). The note with it: ATCC 25922.
The next data set is described as follows: in vitro. The settings on record: human, fresh human red blood cells (washed), pH 7.4.

≈ marks a conversion by molar mass, not a printed value. Read-outs that look alike come from different tables or passages of the source. Non-standard residues stand in square brackets, D forms with d. Residues, ends and D or L forms follow the SMILES beside them. 2Nal = N[C@@H](Cc1ccc2ccccc2c1)C(=O)O; d2Nal = N[C@H](Cc1ccc2ccccc2c1)C(=O)O

As a reminder, the HC50 is the concentration giving 50% haemolysis. For `N=C(N)NCCC[C@@H]1NC(=O)[C@H](CCCNC(=N)N)NC(=O)[C@H](CCCNC(=N)N)NC(=O)[C@@H](Cc2ccc3ccccc3c2)NC(=O)[C@@H](Cc2ccc3ccccc3c2)NC(=O)[C@H](Cc2c[nH]c3ccccc23)NC(=O)[C@H](CCCNC(=N)N)NC1=O` [IFX-112, c[Arg-Arg-Arg-Arg-Trp-naI-naI]] (cyclo(RRRRW[d2Nal][d2Nal])), in data set [1], the “MIC MRSA ATCC BAA-1556” value worked out at 1.5 µg/mL (≈ 1.24 µM). Also, the “MIC S. aureus ATCC 29213” value against S. aureus ATCC 29213 came out at 3.1 µg/mL (≈ 2.57 µM). The “MIC P. aeruginosa ATCC 27883” value in data set [2] (P. aeruginosa ATCC 27883) was found to be 12.5 µg/mL (≈ 10.4 µM). For the same compound, in data set [3], the “MIC E. coli ATCC 25922” value stood at 12.5 µg/mL (≈ 10.4 µM). In addition, in “in vitro”, the HC50 at 0.5 h is 295 µg/mL.

Turning to `N=C(N)NCCC[C@H](NC(=O)[C@H](CCCNC(=N)N)NC(=O)[C@H](CCCNC(=N)N)NC(=O)[C@@H](N)CCCNC(=N)N)C(=O)N[C@@H](Cc1c[nH]c2ccccc12)C(=O)N[C@H](Cc1ccc2ccccc2c1)C(=O)N[C@H](Cc1ccc2ccccc2c1)C(=O)O` [IFX-112-1] (H-RRRRW[d2Nal][d2Nal]-OH), the “MIC MRSA ATCC BAA-1556” value in data set [1] is 3.1 µg/mL (≈ 2.53 µM). In addition, the “MIC S. aureus ATCC 29213” value against S. aureus ATCC 29213 was 6.2 µg/mL (≈ 5.07 µM). Further, in data set [2] (ATCC 27883), the “MIC P. aeruginosa ATCC 27883” value was determined as 25 µg/mL (≈ 20.4 µM). Also, the “MIC E. coli ATCC 25922” value in data set [3] came to 12.5 µg/mL (≈ 10.2 µM). This compound registered a 50% haemolytic concentration (HC50) at 0.5 h in “in vitro” of 370 µg/mL.

For `N=C(N)NCCC[C@H]1NC(=O)[C@H](Cc2ccc3ccccc3c2)NC(=O)[C@H](Cc2ccc3ccccc3c2)NC(=O)[C@H](Cc2c[nH]c3ccccc23)NC(=O)[C@@H](CCCNC(=N)N)NC(=O)[C@@H](CCCNC(=N)N)NC(=O)[C@@H](CCCNC(=N)N)NC1=O` [IFX-113, c[arg-arg-arg-arg-Trp-NaI-NaI]] (cyclo([dR][dR][dR][dR]W[2Nal][2Nal])), in data set [1], the “MIC MRSA ATCC BAA-1556” value is 1.5 µg/mL (≈ 1.24 µM). The “MIC S. aureus ATCC 29213” value against S. aureus ATCC 29213 is 3.1 µg/mL (≈ 2.57 µM). In addition, the “MIC P. aeruginosa ATCC 27883” value in data set [2] (P. aeruginosa ATCC 27883) worked out at 12.5 µg/mL (≈ 10.4 µM). Moreover, in data set [3], the “MIC E. coli ATCC 25922” value is 12.5 µg/mL (≈ 10.4 µM). In the data set “in vitro”, this compound gave an HC50 at 0.5 h of 365 µg/mL.

As for `N=C(N)NCCC[C@@H](N)C(=O)N[C@H](CCCNC(=N)N)C(=O)N[C@H](CCCNC(=N)N)C(=O)N[C@H](CCCNC(=N)N)C(=O)N[C@@H](Cc1c[nH]c2ccccc12)C(=O)N[C@@H](Cc1ccc2ccccc2c1)C(=O)N[C@@H](Cc1ccc2ccccc2c1)C(=O)O` [IFX-113-1] (H-[dR][dR][dR][dR]W[2Nal][2Nal]-OH), the “MIC MRSA ATCC BAA-1556” value in data set [1] is 6.2 µg/mL (≈ 5.07 µM). Moreover, the “MIC S. aureus ATCC 29213” value against S. aureus ATCC 29213 worked out at 6.2 µg/mL (≈ 5.07 µM). Moreover, the “MIC P. aeruginosa ATCC 27883” value in data set [2] (ATCC 27883) was 12.5 µg/mL (≈ 10.2 µM). Also, the “MIC E. coli ATCC 25922” value in data set [3] came to 12.5 µg/mL (≈ 10.2 µM). In the data set “in vitro”, this compound had an HC50 at 0.5 h of 300 µg/mL.

For `N=C(N)NCCC[C@@H]1NC(=O)[C@H](CCCNC(=N)N)NC(=O)[C@H](CCCNC(=N)N)NC(=O)[C@@H](Cc2ccc3ccccc3c2)NC(=O)[C@@H](Cc2ccc3ccccc3c2)NC(=O)[C@@H](Cc2c[nH]c3ccccc23)NC(=O)[C@H](CCCNC(=N)N)NC1=O` [IFX-114, c[Arg-Arg-Arg-Arg-trp-naI-naI]] (cyclo(RRRR[dW][d2Nal][d2Nal])), the “MIC MRSA ATCC BAA-1556” value in data set [1] was found to be 3.1 µg/mL (≈ 2.57 µM). Also, the “MIC S. aureus ATCC 29213” value in the data set on S. aureus ATCC 29213 amounted to 3.1 µg/mL (≈ 2.57 µM). The “MIC P. aeruginosa ATCC 27883” value in data set [2] (ATCC 27883) is 25 µg/mL (≈ 20.7 µM). Moreover, the “MIC E. coli ATCC 25922” value in data set [3] amounted to 12.5 µg/mL (≈ 10.4 µM). Also, in “in vitro”, the concentration for 50% haemolysis (HC50) at 0.5 h is 380 µg/mL.

Turning to `N=C(N)NCCC[C@H]1NC(=O)[C@@H](CCCNC(=N)N)NC(=O)[C@@H](CCCNC(=N)N)NC(=O)[C@@H](Cc2ccc3ccccc3c2)NC(=O)[C@@H](Cc2ccc3ccccc3c2)NC(=O)[C@@H](Cc2c[nH]c3ccccc23)NC(=O)[C@@H](CCCNC(=N)N)NC1=O` [IFX-115, c[arg-arg-arg-arg-trp-naI-naI]] (cyclo([dR][dR][dR][dR][dW][d2Nal][d2Nal])), the “MIC MRSA ATCC BAA-1556” value in data set [1] came to 3.1 µg/mL (≈ 2.57 µM). For the same compound, the “MIC S. aureus ATCC 29213” value against S. aureus ATCC 29213 was found to be 3.1 µg/mL (≈ 2.57 µM). Moreover, the “MIC P. aeruginosa ATCC 27883” value in data set [2] (ATCC 27883) stood at 25 µg/mL (≈ 20.7 µM). Further, the “MIC E. coli ATCC 25922” value in data set [3] worked out at 12.5 µg/mL (≈ 10.4 µM). This compound also yielded an HC50 at 0.5 h in “in vitro” of 360 µg/mL.

For the compound `N=C(N)NCCC[C@H]1NC(=O)[C@H](Cc2ccc3ccccc3c2)NC(=O)[C@H](Cc2ccc3ccccc3c2)NC(=O)[C@@H](Cc2c[nH]c3ccccc23)NC(=O)[C@@H](CCCNC(=N)N)NC(=O)[C@@H](CCCNC(=N)N)NC(=O)[C@@H](CCCNC(=N)N)NC1=O` [IFX-122, c[arg-arg-arg-arg-trp-NaI-NaI]] (cyclo([2Nal][2Nal][dR][dR][dR][dR][dW])), in data set [1], the “MIC MRSA ATCC BAA-1556” value is 3.1 µg/mL (≈ 2.57 µM). In addition, the “MIC S. aureus ATCC 29213” value against S. aureus ATCC 29213 came out at 3.1 µg/mL (≈ 2.57 µM). Moreover, the “MIC P. aeruginosa ATCC 27883” value in data set [2] (ATCC 27883) stood at 32 µg/mL (≈ 26.5 µM). Also, the “MIC E. coli ATCC 25922” value in data set [3] amounted to 32 µg/mL (≈ 26.5 µM). In “in vitro”, this compound gave an HC50 at 0.5 h of 220 µg/mL.

Source of the values: patent US20220289794A1, “SYNTHETIC ANTIMICROBIAL PEPTIDES” (priority 2019, published 2022).
